From publication PMC5890937 (European journal of medicinal chemistry, 2017)
Values joined by “and” are separate entries in the source; they are usually repeats but may differ in a detail not shown here. Equal values may be shown once. Each block holds one compound with its values, some of them ahead of it.

How the values were obtained:
[1] = system: HDAC6; conditions: cited from earlier work
[2] = target: T1, HDAC6 (Homo sapiens, UniProt Q9UBN7); experiment: ELISA-based HDAC activity assay, HDAC6; assay type: biochemical; conditions: for fold selectivity for HDAC6 and HDAC8 over HDAC1, 2, and 3 / HDAC6 selectivity over HDAC1, 2, and 3: from IC50 values; for isoform selectivity in single concentration screen (HDAC6 versus HDAC1, 2, 3): 1a-f at 0.75, 0.75, 2.5, 1.25, 2.5, and 5 μM, SAHA at 1 μM
T1 sequence (Q9UBN7 1-1215): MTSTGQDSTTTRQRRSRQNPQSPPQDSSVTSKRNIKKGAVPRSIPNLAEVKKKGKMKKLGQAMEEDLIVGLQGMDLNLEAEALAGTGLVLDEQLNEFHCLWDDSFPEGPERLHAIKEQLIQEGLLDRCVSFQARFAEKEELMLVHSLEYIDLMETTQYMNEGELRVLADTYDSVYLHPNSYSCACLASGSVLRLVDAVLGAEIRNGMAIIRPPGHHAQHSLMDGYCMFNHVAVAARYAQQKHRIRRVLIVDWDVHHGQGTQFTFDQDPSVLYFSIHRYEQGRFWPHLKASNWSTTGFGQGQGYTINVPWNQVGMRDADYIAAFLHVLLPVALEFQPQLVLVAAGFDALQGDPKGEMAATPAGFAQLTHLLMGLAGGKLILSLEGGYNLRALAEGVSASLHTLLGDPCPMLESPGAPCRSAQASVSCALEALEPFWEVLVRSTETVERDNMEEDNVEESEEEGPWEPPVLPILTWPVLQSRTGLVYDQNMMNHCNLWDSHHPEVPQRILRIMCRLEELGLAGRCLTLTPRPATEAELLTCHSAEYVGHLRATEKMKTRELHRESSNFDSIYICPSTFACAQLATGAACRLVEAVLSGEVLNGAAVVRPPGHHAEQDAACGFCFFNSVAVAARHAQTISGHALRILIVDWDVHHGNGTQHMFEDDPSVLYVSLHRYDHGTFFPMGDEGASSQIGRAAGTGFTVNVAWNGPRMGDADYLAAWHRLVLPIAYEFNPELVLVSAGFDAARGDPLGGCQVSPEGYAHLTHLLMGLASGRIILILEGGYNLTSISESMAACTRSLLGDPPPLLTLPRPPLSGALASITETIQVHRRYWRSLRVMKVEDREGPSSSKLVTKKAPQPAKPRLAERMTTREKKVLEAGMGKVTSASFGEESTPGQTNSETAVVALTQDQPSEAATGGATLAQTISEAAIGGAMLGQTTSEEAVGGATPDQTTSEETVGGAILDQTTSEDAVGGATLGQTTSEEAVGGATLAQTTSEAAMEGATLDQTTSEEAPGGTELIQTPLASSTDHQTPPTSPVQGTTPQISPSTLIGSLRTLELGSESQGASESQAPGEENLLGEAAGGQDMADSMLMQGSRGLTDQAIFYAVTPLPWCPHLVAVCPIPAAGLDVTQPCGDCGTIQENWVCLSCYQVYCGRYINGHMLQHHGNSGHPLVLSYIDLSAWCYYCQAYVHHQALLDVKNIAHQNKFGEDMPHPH

[3] = system: acetyl-α-tubulin (AcTub); experiment: In cellulo selectivity testing, western blot of acetyl-α-tubulin in U937 cells; assay type: cell-based, human; conditions: SAHA 5 μM, 1f 20-60 μM, 18 hours
[4] = system: HDAC8; conditions: read-out: IC50 with HDAC8; cited from earlier work
[5] = system: HeLa cell lysates; experiment: Global HDAC inhibition with HeLa cell lysates; assay type: biochemical, human; conditions: HeLa cell lysates IC50 relative to SAHA

Structure (SMILES): CCCC(CCC)C(=O)NO [Valpropylhydroxamic acid]
selectivity for HDAC6 and 8 against HDAC1, 2, and 3 [1]: 9-17 fold

Structure (SMILES): O=C(CC[C@@H](CCCC(=O)Nc1ccccc1)Cc1ccccc1)NO [(R)-1f, (R)-4-benzyl-N^1-hydroxy-N^8-phenyloctanediamide]
fold selectivity for HDAC6 and HDAC8 over HDAC1, 2, and 3 [2]: 520- to 1300 fold

Structure (SMILES): O=C(CCCC(CCC(=O)Nc1ccccc1)Cc1ccccc1)NO (centres unmarked) [C5-benzyl SAHA]
IC50 [4]: 0.38 µM | HDAC6/8 selectivity [1]: 8- to 21 fold | IC50 ([1]; read-out: IC50 with HDAC6): 0.27 µM

Structure (SMILES): O=C(CC[C@H](CCCC(=O)Nc1ccccc1)Cc1ccccc1)NO [(S)-1f, (S)-4-benzyl-N^1-hydroxy-N^8-phenyloctanediamide]
fold selectivity for HDAC6 and HDAC8 over HDAC1, 2, and 3 [2]: 240- to 540 fold

Second part, led by results:

isoform selectivity in single concentration screen (HDAC6 versus HDAC1, 2, 3) [2]: greatest difference in potency | HDAC6 selectivity over HDAC1, 2, and 3 [2]: at least 210 fold | fold selectivity for HDAC6 and HDAC8 over HDAC1, 2, and 3 [2]: 210- to 740 fold
Structure (SMILES): O=C(CCC(CCCC(=O)Nc1ccccc1)Cc1ccccc1)NO (centres unmarked) [Compound 1f, 4-benzyl-N^1-hydroxy-N^8-phenyloctanediamide]
levels of acetyl-α-tubulin (HDAC6 substrate) [3]: dose-dependent increase

HDAC6 selectivity over HDAC1, 2, and 3 [2]: at least 210 fold | fold selectivity for HDAC6 and HDAC8 over HDAC1, 2, and 3 [2]: 170- to 480 fold and 210- to 480 fold
Structure (SMILES): CCCCCCC(CCCC(=O)Nc1ccccc1)CCC(=O)NO (centres unmarked) [Compound 1d, 4-hexyl-N^1-hydroxy-N^8-phenyloctanediamide]

isoform selectivity in single concentration screen (HDAC6 versus HDAC1, 2, 3) [2]: smallest difference in potency
Structure (SMILES): CC(CCCC(=O)Nc1ccccc1)CCC(=O)NO (centres unmarked) [Compound 1a, N^1-hydroxy-4-methyl-N^8-phenyloctanediamide]
fold less potent compared to SAHA [5]: 18 fold
